{"source": "patent EP0080283B1", "about": "“N-carboxyalkylproline-containing tripeptides” (SMITHKLINE BECKMAN CORPORATION, priority 1981, dated 1983)", "key": {"[1]": {"test_system": "anesthetized dogs", "experiment": "renal anesthetized dog screening protocol (renal vasodilator activity test, infusion)", "assay_type": "in vivo", "design": "renal blood flow / renal vascular resistance: dose or concentration left out as unconfirmed", "details": "for renal vasodilators: primary test period of the screening protocol", "excerpt": "Representative specific results are included in the examples."}, "[2]": {"test_system": "spontaneously hypertensive rats (SHR)", "experiment": "spontaneously hypertensive rat test, diuretic naturetic assay", "assay_type": "in vivo", "procedure": "In this test, male, Okamato-Aoki strain, spontaneously hypertensive rats, aged 16-19 weeks, are fasted, then, the following afternoon, the first dose of test compound is adminstered, along with a 25 ml/kg p.o. load of normal saline. The animals are, then, placed in metabolism cages and urine collected for three hours for analysis. Indirect systolic blood pressure and heart rate are measured by a tail-cuff. An identical second dose of test compound is adminstered. After two hours, blood pressure and heart rate are again tested. The test compound is usually administered p.o. or i.p. in saline with 0.02% ascorbic acid."}, "[3]": {"test_system": "angiotensin coverting enzyme", "experiment": "angiotensin converting enzyme inhibiting activity", "assay_type": "in vivo", "details": "at 10 times its renally effective dose"}, "[4]": {"test_system": "toad bladder", "experiment": "toad bladder anti-ADH assay"}, "[5]": {"test_system": "dopamine-sensitive adenylate cyclase system", "experiment": "dopamine-sensitive adenylate cyclase system in vitro", "assay_type": "biochemical"}, "[6]": {"experiment": "bradycardic effect (heart rate; test not specified)", "details": "in vivo"}, "[7]": {"details": "30 µg/kg/min, 3 anesthetized dogs"}, "[8]": {"details": "two anesthetized dogs, 3, 30 and 300"}, "[9]": {"details": "accumulative effect at 300 dose, 2 anesthetized dogs"}}, "note": "Structures can show the parent of a compound that is named as a salt."}
{"smiles": "O=C(O)CN1CCC[C@H]1C(=O)N[C@@H](Cc1ccccc1)C(=O)N1CCC[C@H]1C(=O)O", "note": "[Example 2 sulfate, N-carboxymethyl-L-prolyl-L-phenylalanyl-L-proline]", "values": [{"measurement": "renal blood flow", "setting": "[1]; 30 and 300", "result": "increased renal blood flow"}]}
{"smiles": "C[C@H](NC(=O)[C@@H]1CCCN1CC(=O)O)C(=O)N1CCC[C@H]1C(=O)O", "note": "[Example 1 barium salt, N-carboxymethyl-L-propyl-L-alanyl-L-proline]", "values": [{"measurement": "decrease in renal vascular resistance", "setting": "[1]; [7]", "result": 15, "unit": "%"}, {"measurement": "increase in renal blood flow", "setting": "[1]; [7]", "result": 21.7, "unit": "%"}]}
{"smiles": "O=C(O)CN1CCC[C@H]1C(=O)NCCC(=O)N1CCC[C@H]1C(=O)O", "note": "[Example 3, N-carboxymethyl-L-prolyi-o-alanyl-L-proline sulfate]", "values": [{"measurement": "Urine", "setting": "[2]; 25 mg/kg i.p., n=3, control 3", "result": 16, "unit": "ml/rat"}, {"measurement": "K^9", "setting": "[2]; 25 mg/kg i.p., n=3, control 85.12", "result": 242.53}, {"measurement": "Na⊕", "setting": "[2]; 25 mg/kg i.p., n=3, control 126.76", "result": 676.04}, {"measurement": "Na^l, K° or urine excretion", "setting": "[2]; 25 and 50 mg/kg i.p.", "result": "significant increase"}, {"measurement": "angiotensin coverting enzyme inhibiting activity", "setting": "[3]", "result": "did not have angiotensin coverting enzyme inhibiting activity"}, {"measurement": "ED15", "setting": "[1]; Canis lupus familiaris, iv, anesthetized renal dog protocol, read-out: RVR-ED15", "result": 0.012, "unit": "mg/kg"}, {"measurement": "renal blood flow", "setting": "[1]; [8]", "result": "increased renal blood flow"}, {"measurement": "renal vascular resistance", "setting": "[1]; [8]", "result": "decreased renal vascular resistance"}, {"measurement": "toad bladder anti-ADH assay activity", "setting": "[4]", "result": "nor was it active"}, {"measurement": "stimulate or antagonize the dopamine-sensitive adenylate cyclase system", "setting": "[5]", "result": "did not stimulate or antagonize"}, {"measurement": "bradycardic effect", "setting": "[6]", "result": "weak bradycardic effect"}]}
{"smiles": "O=C(O)CN1CCCC1C(=O)NCC(=O)N1CCC[C@H]1C(=O)O", "note": "(stereo partly drawn) [N-carboxymethyl-propyl-glycyl-L-proline, reference compound]", "values": [{"measurement": "renal vasodilators", "setting": "[1]", "result": "inactive"}]}
{"smiles": "O=C(O)CN1CCC[C@H]1C(=O)N[C@@H](Cc1ccccc1)C(=O)N1CCC[C@H]1C(=O)O", "note": "[Example 2 barium salt, N-carboxymethyl-L-prolyl-L-phenylalanyl-L-proline]", "values": [{"measurement": "activity within the parameters of anesthetized dog screening test", "setting": "[1]; dog, in vivo", "result": "not active"}]}
{"smiles": "C[C@H](NC(=O)[C@@H]1CCCN1CCC(=O)O)C(=O)N1CCC[C@H]1C(=O)O", "note": "[Example 4, N-(2-carboxyethyl)-L-prolyl-L-alanyl-L-proline]", "values": [{"measurement": "decrease in renal vascular resistance", "setting": "[1]; [9]", "result": 23, "unit": "%"}, {"measurement": "increase in renal blood flow", "setting": "[1]; [9]", "result": 34, "unit": "%"}]}
{"smiles": "CC(C(=O)O)N1CCC[C@H]1C(=O)NCCC(=O)N1CCC[C@H]1C(=O)O", "note": "(stereo partly drawn) [N-(1-carboxyethyl)-L-propyl-β-alanyl-L-proline, reference compound]", "values": [{"measurement": "renal vasodilators", "setting": "[1]", "result": "inactive"}]}
{"smiles": "NCCCC[C@H](NC(=O)[C@@H]1CCCN1CC(=O)O)C(=O)N1CCC[C@H]1C(=O)O", "note": "[N-carboxymethyl-L-propyl-L-lysyl-L-proline, reference compound]", "values": [{"measurement": "renal vasodilators", "setting": "[1]", "result": "inactive"}]}
